# Reference: patent USRE49873E1, “APP specific bace inhibitors (ASBIs) and uses thereof” (BUCK INSTITUTE FOR RESEARCH ON AGING, priority 2012, dated 2024)
# “Also recorded” adds a separate entry of the source.
# How the values were obtained:
# [1] = system: APLP2-Gal4 transactivation in HEK293T cells; experiment: APLP2-Gal4/Mint3/TAZ transactivation assay; type: cell-based; settings: Mint3 and TAZ present, galangin at 10 μM
# Excerpt: FIGS. 7A and 7B illustrate inhibition of APP-Gal4 and APLP2-Gal4 transactivation by galangin. […] This transactivation was inhibited by Galangin and BACE inhibitor IV. FIG. 7B: Potent transactivation of transcription was also achieved with APLP2 fused to the Gal4 DNA binding domain when both Mint3 and TAZ were present. This transactivation was inhibited by Galangin and BACE inhibitor IV. […] The normalized luciferase activity is expressed as a percentage of the DMSO treated control (FIGS. 7A, 7B). Error bars indicate SEM. (*, p<0.05; **, p<0.01; ***, p<0.001; n=3, student t test).
# This assay system is described by Orcholski et al. (2011) J. Alzheimers Dis., 23(4):689-699. Transactivation is achieved upon transfection with Mint3 and Taz. The ASBI was expected to inhibit only the transactivation of APP-Gal4, not that of APLP2-Gal4. For these experiments cells were co-transfected with a Gal4-luciferase reporter plasmid (to measure transactivation), a beta-galactosidase plasmid (to normalize for transfection efficiency), and the test plasmids identified. The normalized luciferase activity was expressed as fold induction over transcription by APP-Gal4 alone (FIG. 7A), or as fold induction over APLP2-Gal4 alone (FIG. 7B).
# HEK293T cells were co-transfected with five plasmids: (1) pG5E1B-luc, 0.3 μg; (2) pCMV-LacZ, 0.1 μg; (3) pMst-APP (APP-Gal4) or pcDNA3.1-APLP2-Gal4, 0.3 μg; (4) pCMV5-Mint3, 1.0 μg; (5) pEF-N-FLAG-TAZ, 1.0 μg. Cells were harvested 48 hr after transfection in 0.2 ml per well Cell Culture Lysis Buffer (Promega), and their luciferase and β-galactosidase activities were determined with the Promega luciferase assay kit and the Promega β-galactosidase assay kit, respectively. The luciferase activity was standardized by the β-galactosidase activity to control for transfection efficiency and general effects on transcription. Transfections were performed at 80-90% cofluency in six-well plates using Lipofectamine 2000 (Invitrogen).
# TRX-eAPP575-624 = biological target: T1, TRX-eAPP575-624 (Homo sapiens, UniProt P05067); experiment: Surface plasmon resonance binding to APP ectodomain fragments; settings: FIG. 5B
# T1 construct: thioredoxin (TRX) and residues 575-624 of the ectodomain; made in house
# T1 sequence (P05067 650-699): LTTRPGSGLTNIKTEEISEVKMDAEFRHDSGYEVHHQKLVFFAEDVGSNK
# Experimental: Three fusion proteins were immobilized via amine coupling using 20 mM phosphate, 125 mM sodium chloride pH 7.4. The three proteins were MBP-eAPP230-624—a fusion protein containing maltose binding protein (MBP) and residues 230624 of the ectodomain of APP (90-kDa) (FC4), eAPP230-624—a protein that contains only residues 230-624 (45-kDa)(FC2), and TRX-eAPP575-624—a fusion protein containing thioredoxin (TRX) and residues 575-624 of the ectodomain (20 -kDa) (FC3). The proteins were produced as described in Libeu, et al. (2011) J. Alzheimers Dis., 25(3): 547-566 Libeu et al (2011). The flow cell FC1 was used as a control. Galangin was diluted from 10 mM solutions in DMSO to 50 μM in 1% DMSO, 20 mM sodium phosphate pH 7.4, 125 mM sodium chloride, 0.05% Tween and then serially diluted by 1.5 for 10 steps. Binding traces were recorded for each dilution with a binding phase of 60 seconds and a dissociation phase of 240 seconds. Each cycle was performed at 20° C. with a constant flow rate of 20 μl/min. […]
# The binding affinity of the compounds for the ectodomain of APP was determined using SPR. […] Galangin at various concentrations were used in the flow through over the chip and the plasmon resonance signal was determined using a Biacore T100 (FIG. 5B).
# [2] = system: sAPPβ production by SH-SY5Y cells; experiment: sAPPβ AlphaLisa in SH-SY5Y neuroblastoma cells; type: cell-based
# Experimental: APP is processed through two major pathways: the non-amyloidogenic pathway involves α-secretase cleavage, proteolyzing APP into sAPPα and α-CTF (C83), while the amyloidogenic pathway starts with β-secretase cleavage, cleaving APP into sAPPβ and β-CTF (C99). The β-CTF is then cleaved by the γ-secretase, which produces Aβ and AICD. The ability of the ASBIs to inhibit the β-secretase processing of APP was tested in SH-SY5Y neuroblastoma cells that express APP. The sAPPβ fragment formed from the BACE cleavage product was measured using an AlphaLisa assay from Perkin-Elmer (Cat# A2132). […] Testing of a panel of bioflavonoids led to the identification of galangin as an ASBI.
structure (smiles),measurement,setting,value
O=c1c(O)c(-c2ccccc2)oc2cc(O)cc(O)c12 [Galangin],APLP2-Gal4 transactivation,[1],inhibited
same,APLP2-Gal4 transactivation,[1]; listed as galangin,inhibit; also recorded: inhibits APP-Gal4 and APLP2-Gal4
same,binding to APP by SPR,TRX-eAPP575-624,demonstrated binding to the APP substrate
same,APP levels,[2],No effect on APP levels was detected
same,sAPPβ levels,[2]; 50 μM,decreased sAPPβ levels
